Test results as given in paper PMC9369610, “Pro-Apoptotic and Pro-Autophagic Properties of Cardenolides from Aerial Parts of Pergularia tomentosa” (Molecules, 2022).

What was measured:
Caco-2 cells = experiment: MTT cell viability assay, IC50 in Caco-2 cells; format: cell-based; settings: Homo sapiens, 24 h, SE less than 10% of value
Description: (§1) The human liver hepatocellular carcinoma cell line, HepG2, and the human adenocarcinoma of colon cell line, Caco-2, were cultured in Eagle’s Minimum Essential medium supplemented with 1% (v/v) non-essential amino acids, 0.2 mM L-glutamine, 50 units/mL penicillin, 50 μg/mL streptomycin and 10% (v/v) or 20% (v/v) fetal bovine serum (Sigma Aldrich, Milan, Italy) for HepG2 or Caco-2, respectively. The human embryonal lung fibroblast cell line, MRC5, was cultured in Dulbecco’s Modified Eagle medium (Sigma Aldrich, Milan, Italy) supplemented with 10% (v/v) fetal bovine serum, 0.2 mM L-glutamine, 50 units/mL penicillin and 50 μg/mL streptomycin. HUVEC cells were cultured in endothelial growth medium-2, supplemented with fetal bovine serum (2%), VEGF (0.1%), rH FGF-B (0.4%), rH EGF (0.1%), GA-1000 (0.1%), hydrocortisone (0.04%), R3-IGF-1 (0.1%), heparin (0.1%) and ascorbic acid (0.1%). Cells were maintained at 37 °C in a 5% CO2, 95% air-humidified atmosphere and passaged twice a week. Cell lines were obtained from Interlab Cell Line Collection, Istituto Nazionale per la Ricerca sul Cancro, Genoa, Italy. HUVEC were obtained from Lonza (Milan, Italy).
(§2) An MTT assay was used to analyse cell viability. Cells were seeded in 96 wells at the density of 2 × 10^4/cm^2 and, after 24 h, they were treated with P. tomentosa compounds or with the vehicle (DMSO). After a further 24 h of treatment, 0.5 mg/mL of MTT was added to the cell medium and incubated for 1.5 h at 37 °C. The resulting formazan crystals were dissolved in 100 μL of DMSO and absorbances were measured at 595 nm and 655 nm. The background signals at 655 nm were subtracted from 595 nm signals, and data were expressed as a percent of cell viability. The concentration of each compound that is required for 50% inhibition in vitro (IC50) was calculated as described in Husseini et al.. IC50 values were obtained for Caco-2, HepG2 and MRC5 cells by performing MTT assays with concentrations ranging from 0.01 μg/mL to 5 μg/mL.

HepG2 cells [1] = experiment: MTT cell viability assay, IC50 in HepG2 cells; format: cell-based; settings: Homo sapiens, 24 h, SE less than 10% of value
Description: as §1, §2

MRC5 cells = experiment: MTT cell viability assay, IC50 in MRC5 cells; format: cell-based; settings: Homo sapiens, 24 h, SE less than 10% of value
Description: as §1, §2

[2] = tested on: HepG2, Caco-2, MRC5 and HUVEC cells; experiment: MTT assay, comparison of cytotoxic effects at 1 μM on four cell types; format: cell-based, human; settings: 24 h, Caco-2, HepG2, MRC5, HUVEC
Source text: We focused attention on 12β,6′-dihydroxycalotropin (1), 16α-hydroxycalotropin (2), 12β-hydroxycalactin (3), calotropin (4), and calactin (5), among those described by Hosseini et al., and tested their cytotoxic activity by a 3-(4,5-dime-thylthiazol-2-yl)-2,5-diphenylte-tetrazolium bromide (MTT) assay on two cancer cell lines (HepG2 and Caco-2), not previously employed, on an immortalised nontumoral cell line (MRC5) and normal primary cells (HUVEC).
Figure 2 Comparison of cytotoxic effects of P. tomentosa compounds on cancer cell lines (Caco-2 and HepG2), on an immortalised cell line (MRC5) and normal cells (HUVEC). Cells were treated for 24 h with 1 μM of each compound. Residual viability was measured by the MTT assay. Values are the means ± standard error (SE) of three independent experiments performed in triplicate. Statistical analysis was performed using the Student’s t-test. * p < 0.05 and ** p < 0.01 vs. cells treated with the vehicle (DMSO).
as §1, §2

p53 in HepG2 cells = experiment: Western blot analysis of p53 expression; format: cell-based, human; settings: HepG2, 1 μM, 24 h
Description: (§3) To analyse the protein levels of p53, caspase-3, GRP78, LC3 and p62, HepG2 cells were treated with P. tomentosa compounds (1 or 2 μM) or with DMSO for the indicated times; then, Western blot analyses were performed. Briefly, cells were lysed in RIPA buffer (20 mM Tris-HCl, pH 7.5, 150 mM NaCl, 1 mM EDTA, 1 mM dithiothreitol, 0.1% sodium dodecyl sulphate, 1% triton X-100, 1 mM orthovanadate, and a cocktail of inhibitors (Sigma-Aldrich, Milan, Italy)). After separation on a sodium dodecyl sulphate-polyacrylamide gel electrophoresis and transfer to a poly-vinylidene fluoride membrane (Euroclone, Milan, Italy), the following primary antibodies were used, at a dilution of 1:1000 in tris-buffered saline containing 1% non-fat dry milk, overnight at 4 °C: mouse anti-p53 antibody, mouse anti-MAP LC3 β antibody, mouse anti-p62 antibody (DBA, Milan, Italy), mouse anti-GRP78 antibody, and mouse anti-caspase 3 antibody (Thermo Fisher Scientific, Milan, Italy). For normalisation, a mouse anti-GAPDH antibody (Microtech, Naples, Italy) was used.

HepG2 cells [3] = experiment: Transwell migration assay; format: cell-based, human; settings: HepG2, 1 μM, 18 h
Description: Transwell filters (coated with collagen) in serum-free media containing 0.1% of BSA, with a PET membrane with 8 μm pores (BD Biosciences, Milan, Italy), were rehydrated for 2 h at 37 °C. HepG2 were seeded in the upper chambers at a density of 75 × 10^3 cells in MEM with 0.1% BSA and treated with or without 1 µM of Pergularia compounds. MEM−0.1%BSA, supplemented with 10% FBS, was added to the lower chamber as chemoattractant. Control wells without 10% FBS were included to assess random migration. After incubation at 37 °C in 5% CO2 for 18 h, the migrated cells were fixed with 4% paraformaldehyde for 5 min, permeabilised with methanol for 20 min and stained with crystal violet 0.5% for 15 min at room temperature. The cells on the lower side of the filter were allowed to dry before counting. Eight separate bright-field images were randomly acquired of each filter using an Olympus CKX41 Image Analyzer. The cells in each image were counted and analysed compared to control-transfected cells.

caspase-3 in HepG2 cells = experiment: Western blot of cleaved caspase-3; format: cell-based, human; settings: HepG2, 2 μM, 7 h, Western blot densitometry
Description: as §3

HepG2 cells [4] = experiment: TUNEL assay; format: cell-based, human; settings: HepG2, 1 μM, 24 h
Description: Microscopic evaluation of apoptosis was performed by a TUNEL assay, using a commercial kit (Fragment End Labelling (FragEL™), […]) DNA Fragmentation Detection Kit, Sigma-Aldrich, Milan, Italy) according to the manufacturer-provided protocol, with some modifications. Briefly, cells were seeded on glass cover slips placed in 24-well plates at a density of 3.5 × 10^3/cm^2 and, after 48 h, they were treated with 1 μΜ of each compound for a further 24 h. Cells were fixed in 3% paraformaldehyde for 10 min, permeabilised in 0.2% Triton X-100 for 5 min and treated with HCl 1.5 N for 8 min. Finally, cover slips were equilibrated in equilibration buffer (10 min) and incubated with label mix containing the TdT enzyme for 1 h at 37 °C, then mounted with mounting media. Microscope observations were performed by the AxioSkop 40 fluorescent microscope. Images were acquired with Axiocam MRc5 (Carl Zeiss MicroImaging, Inc., Jena, Germany).

C[C@@H]1C[C@@H](O)[C@]2(O)O[C@@H]3C[C@@]4(C=O)[C@@H](CC[C@@H]5[C@@H]4CC[C@]4(C)[C@@H](C6=CC(=O)OC6)CC[C@]54O)C[C@H]3O[C@@H]2O1 [Compound 5, calactin]
IC50 (Caco-2 cells): 650 nM | IC50 (HepG2 cells [1]): 127 nM | IC50 (MRC5 cells): 990 nM | relative cytotoxicity (residual viability, MTT) [2]: most cytotoxic | p53 protein level (p53 in HepG2 cells): clearly decreased the p53 amount | effect on transwell migration (HepG2 cells [3]): most potent | cleaved caspase-3 (caspase-3 activation) (caspase-3 in HepG2 cells): most active | apoptotic nuclei (TUNEL) (HepG2 cells [4]): occurrence of apoptotic nuclei
